Consider 22 molecules from US20250144172A1, “ANTI-FIBROTIC SIALIDASE INHIBITOR COMPOUNDS AND METHODS OF USE” (The Texas A&M University System, priority 2016, published 2025).

A value given as a limit tells only on which side of the number the result lay.

Sequence of human NEU2 (Q9Y3R4 whole entry): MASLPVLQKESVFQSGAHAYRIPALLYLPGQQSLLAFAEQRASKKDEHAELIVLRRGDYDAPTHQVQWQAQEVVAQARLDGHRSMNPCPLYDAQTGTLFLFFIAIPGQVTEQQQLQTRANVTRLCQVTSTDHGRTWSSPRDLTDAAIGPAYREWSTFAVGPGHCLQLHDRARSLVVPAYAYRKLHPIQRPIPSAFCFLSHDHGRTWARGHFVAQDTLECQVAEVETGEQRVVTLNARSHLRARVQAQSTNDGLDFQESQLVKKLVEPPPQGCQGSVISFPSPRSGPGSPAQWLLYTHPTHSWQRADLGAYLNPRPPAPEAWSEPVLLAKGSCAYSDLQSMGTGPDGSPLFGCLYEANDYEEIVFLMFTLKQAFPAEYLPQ

One experiment concerns human PBMC. As to the kind of experiment: fibrocyte formation in human PBMC, serum-free medium. The note with it: 5 days; 100 ng/ml sialidase, 10 μg/ml DANA or 1 μg/ml SAP. It counts as cell-based. How it is done: Human peripheral blood was collected from healthy adult volunteers who gave written consent and with specific approval from the Texas A&M University human subjects Institutional Review Board. Peripheral blood mononuclear cells (PBMC) were isolated from blood using Ficoll-Paque Plus (GE Healthcare Biosciences, Piscataway, NJ). Human PBMC were incubated in serum-free medium (FibroLife basal media (LM-0001, Lifeline Cell Technology, Walkersville, MD), supplemented with 10 mM HEPES (Sigma-Aldrich, St. Louis, MO), 1x non-essential amino acids (Sigma-Aldrich), 1 mM sodium pyruvate (Sigma-Aldrich), 2 mM glutamine (Invitrogen, Carlsbad, CA), 100 U/ml penicillin, 100 μg/ml streptomycin (Sigma-Aldrich), and 1x ITS-3 (Sigma-Aldrich) in the presence of absence of 100 ng/ml recombinant human sialidases (Origene, Rockville MD), 10 μg/ml DANA (Calbiochem, San Diego, CA), or 1 μg/ml human SAP (Calbiochem). After 5 days, fibrocytes were counted, and results are presented in FIG. 5.
Regarding “SAP: human SAP (Calbiochem), serum amyloid protein”, the “fibrocyte formation / differentiation” value is on record as “No fibrocytes were detected”.

A further experiment addresses human NEU2 (Homo sapiens (Human), UniProt Q9Y3R4). The experiment in a line: human NEU2 sialidase inhibition.
Settings: not given
`CC(=O)N[C@@H]1[C@@H](O)C=C(C(=O)O)C[C@H]1OCC(C)C` [Compound 12]: affinity was put at a Ki of 880 µM.
As for `CC(=O)N[C@@H]1[C@@H](O)C=C(C(=O)O)C[C@H]1OCCCO` [Compound 13], the Ki (usually a measure of affinity in units of concentration, obtained from inhibition or displacement) amounted to 740 µM.
As to `CC(=O)N[C@@H]1[C@@H](O)C=C(C(=O)O)C[C@H]1OCC(O)CO` (some centres unmarked) [Compound 14], the affinity corresponds to a Ki of 1400 µM.

The experiment is the same for the next values; noted with them: NEU2 IC50, human NEU2.
Take `CC(=O)N[C@@H]1C(N)C=C(C(=O)O)OC1CNc1ccccc1` (some centres unmarked) [Compound 45]: the IC50 (usually the concentration that gives 50% inhibition) turned out to be 100 ± 13 µM.

Staying with this experiment, now noted: read-out: NEU2 IC50; human NEU2.
With “2,6-Anhydro-3,5-dideoxy-5-glycolylamido-D-glycero-D-galactonon-2-enonic acid [Compound 39]”, the IC50 is 34 ± 4 µM.
Turning to `COC[C@@H](O)[C@@H](O)[C@@H]1OC(C(=O)O)=C[C@H](O)[C@H]1NC(C)=O` [Compound 35], the IC50 amounted to 410 µM.
Turning to `CC(=O)N[C@H]1C([C@@H](O)[C@@H](O)Cn2cc(OCc3ccccc3)nn2)OC(C(=O)O)=C[C@@H]1O` (some centres unmarked) [Compound 53], the half-maximal inhibitory concentration (IC50) was determined as 800 ± 70 µM.
Turning to `CC(=O)N[C@H]1[C@H]([C@H](O)[C@H](O)CN=[N+]=[N-])OC(C(=O)O)=C[C@@H]1O` [Compound 32], the IC50 turned out to be 31 ± 6 µM.
Same read-out and setting: as for `[N-]=[N+]=NC[C@@H](O)[C@@H](O)[C@@H]1OC(C(=O)O)=C[C@H](O)[C@H]1NC(=O)CO` [Compound 33], the figure is 190 µM.

In a further experiment the target is human NEU1 (Homo sapiens (Human), UniProt Q99519). As to the kind of experiment: human NEU1 sialidase inhibition.
Settings: not given
The molecule `[N-]=[N+]=NCC(=O)N[C@@H]1C(O)C=C(C(=O)O)OC1C(O)C(O)CO` (some centres unmarked) [Compound 49] returned an IC50 of 29 ± 0.5 µM.
For `CC(=O)N[C@@H]1C(N=[N+]=[N-])C=C(C(=O)O)OC1C(O)C(O)CO` (some centres unmarked) [Compound 37], half-maximal inhibition (IC50) required 360 ± 50 µM.
For `CC(=O)N[C@@H]1C(O)C=C(C(=O)O)OC1C(O)C(O)CN=[N+]=[N-]` (some centres unmarked) [Compound 48], the IC50 amounted to 620 ± 10 µM.

Staying with this experiment, now noted: read-out: NEU1 IC50; human NEU1.
With `CCOc1cn(C[C@H](O)[C@H](O)C2OC(C(=O)O)=C[C@H](O)[C@H]2NC(C)=O)nn1` (some centres unmarked) [Compound 52], the IC50 came out at 170 ± 20 µM.
For the molecule `CC(=O)N[C@H]1[C@H]([C@@H](O)[C@@H](O)CNC(=O)c2ccccc2)OC(C(=O)O)=C[C@@H]1O` [Compound 3], the IC50 stood at 13 µM.
On to `CC(=O)NC[C@H](O)[C@H](O)[C@@H]1OC(C(=O)O)=C[C@H](O)[C@H]1NC(C)=O` [Compound 2], for which the IC50 turned out to be 58 µM.
Take `CC(=O)N[C@H]1C([C@@H](O)[C@@H](O)Cn2cc(C(C)(C)O)nn2)OC(C(=O)O)=C[C@@H]1O` (some centres unmarked) [Compound 57]: the IC50 is more than 1000 µM.
Still for that read-out and setting: as for `CC(=O)N[C@H]1C([C@@H](O)[C@@H](O)Cn2cc(CCCO)nn2)OC(C(=O)O)=C[C@@H]1O` (some centres unmarked) [Compound 56], the figure is 660 ± 20 µM; as for `CC(=O)N[C@H]1[C@H]([C@@H](O)[C@@H](O)CNC(=O)C2CCCC2)OC(C(=O)O)=C[C@@H]1O` [Compound 4], 135 µM; as for `CC(=O)N[C@H]1C([C@@H](O)[C@@H](O)Cn2cc(CO)nn2)OC(C(=O)O)=C[C@@H]1O` (some centres unmarked) [Compound 54], more than 1000 µM.
Regarding `CC(=O)N[C@H]1[C@H]([C@@H](O)[C@@H](O)CNC(=O)CC(C)C)OC(C(=O)O)=C[C@@H]1O` [Compound 7], the half-inhibitory concentration (IC50) stood at 565 µM.
As for `CC(=O)N[C@H]1C([C@@H](O)[C@@H](O)Cn2cc(CCO)nn2)OC(C(=O)O)=C[C@@H]1O` (some centres unmarked) [Compound 55], the 50% inhibitory concentration (IC50) was more than 1000 µM.

The target of another experiment is human NEU4 (Homo sapiens (Human), UniProt Q8WWR8). The experiment in a line: human NEU4 sialidase inhibition.
Sequence of human NEU4 (Q8WWR8 whole entry): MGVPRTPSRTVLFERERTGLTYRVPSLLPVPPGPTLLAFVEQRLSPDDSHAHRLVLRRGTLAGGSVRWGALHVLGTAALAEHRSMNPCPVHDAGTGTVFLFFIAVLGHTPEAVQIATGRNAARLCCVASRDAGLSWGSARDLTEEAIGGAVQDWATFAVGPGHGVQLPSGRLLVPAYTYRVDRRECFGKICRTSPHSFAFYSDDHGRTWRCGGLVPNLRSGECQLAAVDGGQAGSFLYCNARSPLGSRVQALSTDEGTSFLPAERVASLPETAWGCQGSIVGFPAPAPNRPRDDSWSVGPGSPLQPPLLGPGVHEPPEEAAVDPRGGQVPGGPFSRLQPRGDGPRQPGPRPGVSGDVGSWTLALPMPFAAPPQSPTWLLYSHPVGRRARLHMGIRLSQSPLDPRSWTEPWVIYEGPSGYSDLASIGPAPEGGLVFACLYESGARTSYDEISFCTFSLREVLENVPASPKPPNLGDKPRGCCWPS
Settings: not given
Molecule `[N-]=[N+]=NCC(=O)N[C@@H]1C(O)C=C(C(=O)O)OC1C(O)C(O)CO` (some centres unmarked) [Compound 49] had an IC50 of 4.5 ± 0.1 µM.
On to `CC(=O)N[C@@H]1C(N=[N+]=[N-])C=C(C(=O)O)OC1C(O)C(O)CO` (some centres unmarked) [Compound 37], for which the IC50 worked out at 1000 ± 60 µM.
`CC(=O)N[C@@H]1C(O)C=C(C(=O)O)OC1C(O)C(O)CN=[N+]=[N-]` (some centres unmarked) [Compound 48]: half-maximal inhibition (IC50) required 60 ± 20 µM.

Staying with this experiment, now noted: read-out: NEU4 IC50; human NEU4.
As for `CCOc1cn(C[C@H](O)[C@H](O)C2OC(C(=O)O)=C[C@H](O)[C@H]2NC(C)=O)nn1` (some centres unmarked) [Compound 52], the IC50 came out at 3.6 ± 0.3 µM.
Take `CC(=O)N[C@H]1[C@H]([C@@H](O)[C@@H](O)CNC(=O)c2ccccc2)OC(C(=O)O)=C[C@@H]1O` [Compound 3]: the IC50 amounted to 810 µM.
The same measure, in the same setting: to `CC(=O)NC[C@H](O)[C@H](O)[C@@H]1OC(C(=O)O)=C[C@H](O)[C@H]1NC(C)=O` [Compound 2] belongs 580 µM.
In the case of `CC(=O)N[C@H]1C([C@@H](O)[C@@H](O)Cn2cc(C(C)(C)O)nn2)OC(C(=O)O)=C[C@@H]1O` (some centres unmarked) [Compound 57], the IC50 turned out to be 4 ± 0.3 µM.
`CC(=O)N[C@H]1C([C@@H](O)[C@@H](O)Cn2cc(CCCO)nn2)OC(C(=O)O)=C[C@@H]1O` (some centres unmarked) [Compound 56]: the IC50 was 2.1 ± 0.1 µM.
`CC(=O)N[C@H]1[C@H]([C@@H](O)[C@@H](O)CNC(=O)C2CCCC2)OC(C(=O)O)=C[C@@H]1O` [Compound 4]: the IC50 is more than 1000 µM.
Regarding `CC(=O)N[C@H]1C([C@@H](O)[C@@H](O)Cn2cc(OCc3ccccc3)nn2)OC(C(=O)O)=C[C@@H]1O` (some centres unmarked) [Compound 53], the IC50 was found to be 1.7 ± 0.2 µM.
Turning to `CC(=O)N[C@H]1[C@H]([C@@H](O)[C@@H](O)CNC(=O)CC(C)C)OC(C(=O)O)=C[C@@H]1O` [Compound 7], the IC50 was more than 1000 µM.
As to `CC(=O)N[C@H]1C([C@@H](O)[C@@H](O)Cn2cc(CCO)nn2)OC(C(=O)O)=C[C@@H]1O` (some centres unmarked) [Compound 55], the IC50 was found to be 0.81 ± 0.04 µM.

A further experiment deals with human NEU3 (Homo sapiens (Human), UniProt Q9UQ49). The experiment in a line: human NEU3 sialidase inhibition. The note with it: NEU3 IC50, human NEU3.
Sequence of human NEU3 (Q9UQ49 whole entry): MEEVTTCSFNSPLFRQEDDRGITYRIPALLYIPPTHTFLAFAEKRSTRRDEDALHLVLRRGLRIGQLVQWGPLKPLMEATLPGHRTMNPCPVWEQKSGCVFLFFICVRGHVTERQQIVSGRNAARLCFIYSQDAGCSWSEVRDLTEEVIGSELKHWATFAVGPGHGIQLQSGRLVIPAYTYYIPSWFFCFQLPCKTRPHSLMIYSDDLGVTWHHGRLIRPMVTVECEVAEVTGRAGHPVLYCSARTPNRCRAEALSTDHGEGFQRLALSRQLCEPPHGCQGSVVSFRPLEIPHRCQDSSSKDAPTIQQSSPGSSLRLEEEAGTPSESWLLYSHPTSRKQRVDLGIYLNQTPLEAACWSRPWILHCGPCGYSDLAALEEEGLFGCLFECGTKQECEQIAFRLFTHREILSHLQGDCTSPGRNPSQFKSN
Excerpt: Enzymatic activity may be defined as inhibited if the rate measured by the Michaelis-Menten equation in an in vitro assay using a substrate with a terminal sialic acid is inhibited by at least 50%. More specifically, a human sialidase inhibitor may be a compound that inhibits the rate of at least one human sialidase by at least 50% as measured by the Michaelis-Menten equation in an in vitro assay using the fluorometric substrate 4MU-NANA [2′-(4-Methylumbelliferyl)-α-D-N-acetylneuraminic acid.
In general, sialidase activity, including human sialidase activity, may be assessed at 37° C. in the presence of buffers ranging in pH from 3.7 to 7.4. […] Bovine serum albumin (BSA) is added to the buffer at a concentration of 100 ug/ml. Sialidase at a final concentration of 300 ng/ml is then added to the buffer. A sialidase inhibitor is then added to the mixture at a series of final concentrations. The reaction mixture is incubated for 30 minutes to allow the inhibitor to bind the sialidase. The fluorometric substrate 4MU-NANA [2′-(4-Methylumbelliferyl)-α-D-N-acetylneuraminic acid sodium salt hydrate is then added at a final concentration of 200 μM. […] The total volume of each reaction mixture is 0.1 ml. The cleavage of 4MU-NANA is then monitored by fluorescence every 20 minutes for 5 hours with excitation light at 360 nm and the fluorescence emission at 460 nm.
The fluorescence in the absence of sialidases is subtracted from all readings.
In turn, `[N-]=[N+]=NCC(=O)N[C@@H]1C(O)C=C(C(=O)O)OC1C(O)C(O)CO` (some centres unmarked) [Compound 49] had an IC50 of 4.7 ± 0.3 µM.
Molecule `CC(=O)N[C@@H]1C(N)C=C(C(=O)O)OC1CNc1ccccc1` (some centres unmarked) [Compound 45] returned an IC50 of 370 ± 80 µM.
For the molecule `CC(=O)N[C@@H]1C(N=[N+]=[N-])C=C(C(=O)O)OC1C(O)C(O)CO` (some centres unmarked) [Compound 37], 54 ± 5 µM corresponded to half-maximal inhibition (IC50).
For `CC(=O)N[C@@H]1C(O)C=C(C(=O)O)OC1C(O)C(O)CN=[N+]=[N-]` (some centres unmarked) [Compound 48], the IC50 was 19.7 ± 2.3 µM.

The same experiment, now with this note: read-out: NEU3 IC50; human NEU3.
`CCOc1cn(C[C@H](O)[C@H](O)C2OC(C(=O)O)=C[C@H](O)[C@H]2NC(C)=O)nn1` (some centres unmarked) [Compound 52]: the IC50 came out at 90 ± 10 µM.
Consider `CC(=O)N[C@H]1[C@H]([C@@H](O)[C@@H](O)CNC(=O)c2ccccc2)OC(C(=O)O)=C[C@@H]1O` [Compound 3], for which the IC50 was 320 µM.
Turning to `CC(=O)NC[C@H](O)[C@H](O)[C@@H]1OC(C(=O)O)=C[C@H](O)[C@H]1NC(C)=O` [Compound 2], the IC50 is more than 1000 µM.
On to `CC(=O)N[C@H]1C([C@@H](O)[C@@H](O)Cn2cc(CCCO)nn2)OC(C(=O)O)=C[C@@H]1O` (some centres unmarked) [Compound 56], for which the IC50 amounted to 39 ± 1 µM.
On the same count and under the same terms, as for `CC(=O)N[C@H]1[C@H]([C@@H](O)[C@@H](O)CNC(=O)C2CCCC2)OC(C(=O)O)=C[C@@H]1O` [Compound 4], the figure is more than 1000 µM; as for `CC(=O)N[C@H]1C([C@@H](O)[C@@H](O)Cn2cc(CO)nn2)OC(C(=O)O)=C[C@@H]1O` (some centres unmarked) [Compound 54], 80 ± 10 µM; as for `CC(=O)N[C@H]1C([C@@H](O)[C@@H](O)Cn2cc(OCc3ccccc3)nn2)OC(C(=O)O)=C[C@@H]1O` (some centres unmarked) [Compound 53], 5.5 ± 0.6 µM.
For `CC(=O)N[C@H]1[C@H]([C@@H](O)[C@@H](O)CNC(=O)CC(C)C)OC(C(=O)O)=C[C@@H]1O` [Compound 7], the 50% inhibitory concentration (IC50) is more than 1000 µM.
With `CC(=O)N[C@H]1C([C@@H](O)[C@@H](O)Cn2cc(CCO)nn2)OC(C(=O)O)=C[C@@H]1O` (some centres unmarked) [Compound 55], the IC50 came out at 38 ± 2 µM.
